Results taken from PubChem BioAssay AID2060498 (Molecular Pharmacology Branch, DTP, NCI, 2025).
Values joined by “and” are separate entries in the source; they are usually repeats but may differ in a detail not shown here. Identical values can stand only once.

Test system: 171881-019-R-J1-PDC tumor spheroids, viability
Assay: Anticancer human tumor 171881-019-R-J1-PDC patient-derived invasive breast carcinoma cell line growth inhibition [GQUAD]
Conditions: spheroids with HUVEC and MSC; for viability, T/C: stronger effect = lower value
Description: DNA G-quadruplex Stabilizer Agents in Combinations in Complex Spheroids
A high-throughput screen of multi-cell type tumor spheroids was designed to identify active combinations of DNA G-quadruplex stabilizer agents and targeted small molecules. Complex spheroids include a stromal component modeled by human endothelial cells (HUVEC) and fibroblasts modeled by human mesenchymal stem cells (MSCs). The concentration ranges selected for each drug and investigational agent were based upon clinically achievable concentrations if the clinical Cmax of the agent was known.
Compounds. The drugs and investigational agents: pidnarulex (CX-5461; NSC782164), APTO-253 (NSC789042), BRACO-19 (NSC847499), peposertib (NSC802822), ceralasertib (NSC780249), elimusertib (NSC800525), camonsertib (NSC841442), AZD-1390 (NSC803789), olaparib (NSC753686), talazoparib (NSC767125), ART-558 (NSC835418), sotorasib (NSC818433), MRTX-1133 (NSC836407), SN-38 (NSC673596), topotecan (NSC609699), etoposide (NSC141540), doxorubicin (NSC123127), gemcitabine (NSC613327), 5-fluorouracil (NSC19893), paclitaxel (NSC125973), vemurafenib (NSC761431), panobinostat (NSC761190), R-306465 (JNJ-16241199; NSC773264), adavosertib (NSC754352), TP-3654 (NSC805149), carboplatin (NSC241240), KSQ-4279 (NSC840948), and staurosporine (NSC755774) were obtained from the National Cancer Institute (NCI) Developmental Therapeutics Program Chemical Repository (34). The FDA-approved anticancer drug set is available from the NCI Developmental Therapeutics Program. […] The stock solutions were prepared in dimethyl sulfoxide (DMSO, Sigma-Aldrich, St. Louis, MO, cat. D2650) at 800-fold the tested concentration and stored at -70 degrees C prior to their use. All drugs and investigational agents were tested over a range starting from a high concentration at or near the clinical Cmax and decreasing in half-log increments. If the clinical Cmax for an agent had not been determined, the highest concentration tested was 10 microM.
2.3 Cell Culture. All cells were maintained in an incubator at 37 degrees C and 5% CO2 with 95% humidity. The PDC lines were cultured according to standard operating procedures established by the NCI PDMR. All PDCs were thawed and cultured in Matrigel-coated flasks prepared with a working solution of 1X Ham's F-12 nutrient mix, without supplementation (Invitrogen, cat. 11765054), 100 U/mL penicillin-streptomycin (Invitrogen, cat. 15140122), and 2.5% Matrigel (Corning Inc., cat. 354248) for the first three passages. The 857933-349-R-J2-PDC line was cultured in 6C/Colon 1B media, which includes advanced DMEM/F-12 (Thermo Fisher Scientific, cat. 12634028), 10 mM HEPES (Thermo Fisher Scientific, cat. 15630080), 1X GlutaMAX supplement (Thermo Fisher Scientific, cat. 35050061), 0.1 mg/mL primocin (InvivoGen, cat. ant-pm-2), 10% defined fetal bovine serum, heat inactivated (HyClone Laboratories Inc., cat. SH30070.03HI), 50% L-WRN conditioned media (ATCC, cat. CRL-3276), 1.25 mM N-Acetyl-L-cysteine (Sigma-Aldrich, cat. A9165), 10 mM nicotinamide (Sigma-Aldrich, cat. N0636), 1X B-27 supplement (Thermo Fisher Scientific, cat. 17504044), 1X N-2 supplement (Thermo Fisher Scientific, cat. 17502048), 10 microM Y-27632 dihydrochloride (Tocris Bioscience, cat. 1254), and 50 ng/mL human EGF recombinant protein (Thermo Fisher Scientific, cat. PHG0311). The 485176-168-R4-J1-PDC line was cultured in Panc media, which includes all 6C/Colon 1B media components plus 100 ng/mL human FGF-10 (Thermo Fisher Scientific, cat. 100-26), 500 nM SB-431542 (Selleckchem, cat. S1067), and gastrin (Tocris, cat. 3006).
[…]
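Further: spheroids exposed to compounds for 7 days.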
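Wherever viability, T/C is given: 100% = DMSO vehicle control viability.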

COc1ncnc(C2CC2)c1-c1ncc2cnn(Cc3ccc(-c4nc(C(F)(F)F)cn4C(C)C)cc3)c2n1
viability, T/C (compound 0.0316 µM): 94% and 84.8% and 93.3% | viability, T/C (compound 0.1 µM): 89.3% and 100% and 93.7% | viability, T/C (compound 0.316 µM): 85.2% and 92.9% and 94% | viability, T/C (compound 1 µM): 100% and 95.7% and 106% | viability, T/C (compound 3.16 µM): 91.3% and 98.7% and 97.9% | viability, T/C (compound 10 µM): 76.1% and 90.1% and 79.6% | IC50 (curve of compound): > 10000 nM

CN(C)c1ccc(Nc2c3ccc(NC(=O)CCN4CCCC4)cc3nc3cc(NC(=O)CCN4CCCC4)ccc23)cc1
viability, T/C (compound 0.0316 µM): 97.6% [middle of 12 runs] | viability, T/C (compound 0.1 µM): 99.5% [middle of 12 runs] | viability, T/C (compound 1 µM): 20% [middle of 12 runs] | viability, T/C (compound 3.16 µM): 1.98% [middle of 11 runs] | viability, T/C (compound 10 µM): 0.43% [middle of 12 runs] | IC50 (compound alone, run of 02/26/2024): 548 nM [middle of 12 runs]

CCCS(=O)(=O)Nc1ccc(F)c(C(=O)c2c[nH]c3ncc(-c4ccc(Cl)cc4)cc23)c1F
viability, T/C (compound 0.0316 µM): 93.6% and 96.9% and 102% | viability, T/C (compound 0.1 µM): 104% and 92.1% and 101% | viability, T/C (compound 0.316 µM): 105% and 114% and 98.3% | viability, T/C (compound 1 µM): 113% and 97.5% and 123% | viability, T/C (compound 3.16 µM): 96.5% and 102% and 108% | viability, T/C (compound 10 µM): 51% and 50.6% and 74.3% | IC50 (curve of compound): > 10000 nM

Cn1ncnc1[C@H]1c2n[nH]c(=O)c3cc(F)cc(c23)N[C@@H]1c1ccc(F)cc1 + Cc1[nH]c2ccc(F)cc2c1-c1nc2c3cccnc3c3ncccc3c2[nH]1
IC50 (curve of first compound, second compound 0.0316 µM): > 316 nM | IC50 (curve of first compound, second compound 0.1 µM): > 316 nM | IC50 (curve of first compound, second compound 0.316 µM): > 316 nM | IC50 (curve of first compound, second compound 1 µM): > 316 nM | IC50 (curve of first compound, second compound 3.16 µM): < 0.999 nM | IC50 (curve of first compound, second compound 10 µM): < 0.999 nM | viability, T/C (second compound 0.0316 µM, first compound 0.000999 µM): 97.1% | viability, T/C (second compound 0.0316 µM, first compound 0.00316 µM): 94.5% | viability, T/C (second compound 0.0316 µM, first compound 0.00999 µM): 93.2% | viability, T/C (second compound 0.0316 µM, first compound 0.0316 µM): 101% | viability, T/C (second compound 0.0316 µM, first compound 0.0999 µM): 94.6% | viability, T/C (second compound 0.0316 µM, first compound 0.316 µM): 84.5% | viability, T/C (second compound 0.1 µM, first compound 0.000999 µM): 88.5% | viability, T/C (second compound 0.1 µM, first compound 0.00316 µM): 106% | viability, T/C (second compound 0.1 µM, first compound 0.00999 µM): 90% | viability, T/C (second compound 0.1 µM, first compound 0.0316 µM): 101% | viability, T/C (second compound 0.1 µM, first compound 0.0999 µM): 99.1% | viability, T/C (second compound 0.1 µM, first compound 0.316 µM): 87.6% | viability, T/C (second compound 0.316 µM, first compound 0.000999 µM): 102% | viability, T/C (second compound 0.316 µM, first compound 0.00316 µM): 107% | viability, T/C (second compound 0.316 µM, first compound 0.00999 µM): 91.9% | viability, T/C (second compound 0.316 µM, first compound 0.0316 µM): 84.8% | viability, T/C (second compound 0.316 µM, first compound 0.0999 µM): 102% | viability, T/C (second compound 0.316 µM, first compound 0.316 µM): 82.4% | viability, T/C (second compound 1 µM, first compound 0.000999 µM): 79% | viability, T/C (second compound 1 µM, first compound 0.00316 µM): 76.8% | viability, T/C (second compound 1 µM, first compound 0.00999 µM): 81% | viability, T/C (second compound 1 µM, first compound 0.0316 µM): 75% | viability, T/C (second compound 1 µM, first compound 0.0999 µM): 89.1% | viability, T/C (second compound 1 µM, first compound 0.316 µM): 78.6% | viability, T/C (second compound 3.16 µM, first compound 0.000999 µM): 20.5% | viability, T/C (second compound 3.16 µM, first compound 0.00316 µM): 18.4% | viability, T/C (second compound 3.16 µM, first compound 0.00999 µM): 23.2% | viability, T/C (second compound 3.16 µM, first compound 0.0316 µM): 21.1% | viability, T/C (second compound 3.16 µM, first compound 0.0999 µM): 19.7% | viability, T/C (second compound 3.16 µM, first compound 0.316 µM): 17.1% | viability, T/C (second compound 10 µM, first compound 0.000999 µM): 48.6% | viability, T/C (second compound 10 µM, first compound 0.00316 µM): 52.7% | viability, T/C (second compound 10 µM, first compound 0.00999 µM): 55.2% | viability, T/C (second compound 10 µM, first compound 0.0316 µM): 47.3% | viability, T/C (second compound 10 µM, first compound 0.0999 µM): 56.7% | viability, T/C (second compound 10 µM, first compound 0.316 µM): 58.1%

CC1COCCN1c1cc(C2(S(C)(=N)=O)CC2)nc(-c2ccnc3[nH]ccc23)n1 (stereo not given)
viability, T/C (compound 0.0316 µM): 106% and 98.7% and 79.5% | viability, T/C (compound 0.1 µM): 97.3% and 97.8% and 89.9% | viability, T/C (compound 0.316 µM): 93.4% and 89.1% and 82.5% | viability, T/C (compound 1 µM): 59.2% and 58.9% and 55.1% | viability, T/C (compound 3.16 µM): 18.7% and 17.7% and 17% | viability, T/C (compound 10 µM): 9.35% and 7.04% and 9.31% | IC50 (curve of compound): 1290 nM and 1270 nM and 1170 nM

Cc1cnc(CNC(=O)c2c(=O)c3ccc(N4CCCN(C)CC4)nc3n3c2sc2ccccc23)cn1
viability, T/C (compound 0.0316 µM): 94.3% [middle of 12 runs] | viability, T/C (compound 0.1 µM): 85.4% [middle of 12 runs] | viability, T/C (compound 0.316 µM): 76% [middle of 12 runs] | viability, T/C (compound 1 µM): 70.7% [middle of 11 runs] | viability, T/C (compound 3.16 µM): 65% [middle of 12 runs] | viability, T/C (compound 10 µM): 62.7% [middle of 12 runs] | IC50 (compound alone, run of 02/20/2024): > 10000 nM

O=C(c1cc(Cc2n[nH]c(=O)c3ccccc23)ccc1F)N1CCN(C(=O)C2CC2)CC1
viability, T/C (compound 0.0316 µM): 96.1% and 101% and 87.5% | viability, T/C (compound 0.1 µM): 94.4% and 97.5% and 96.8% | viability, T/C (compound 0.316 µM): 94.5% and 105% and 103% | viability, T/C (compound 1 µM): 103% and 101% and 96.6% | viability, T/C (compound 3.16 µM): 100% and 97.8% and 95.5% | viability, T/C (compound 10 µM): 89.8% and 88.3% and 89.4% | IC50 (curve of compound): > 10000 nM

CCc1c2c(nc3ccc(O)cc13)-c1cc3c(c(=O)n1C2)COC(=O)[C@]3(O)CC
viability, T/C (compound 0.000999 µM): 77.2% and 89.1% and 77.4% | viability, T/C (compound 0.00316 µM): 38.9% and 53.4% and 39.7% | viability, T/C (compound 0.00999 µM): 37.3% and 53.9% and 33% | viability, T/C (compound 0.0316 µM): 32% and 42.5% and 33.4% | viability, T/C (compound 0.0999 µM): 27.4% and 34.3% and 26% | viability, T/C (compound 0.316 µM): 23.4% and 26.1% and 21.4% | IC50 (curve of compound): 2.46 nM and 8.66 nM and 2.44 nM
